The text below walks through data of patent US7666848B2, “Thiophene glycoside derivatives, processes for the preparation, medicaments comprising these compounds, and the use thereof” (Sanofi-Aventis Deutschland GmbH, priority 2002, dated 2010).

For this test, the system named is rabbit renal cortex brush border membrane vesicles. Kind of test: Uptake of [14C]-labeled glucose into brush border membrane vesicles (transport assay, membrane filtration method). Format: biochemical. Conditions: transport assay on rabbit renal cortex brush border membrane vesicles; 10 μM [14C]D glucose, 30° C., 15 seconds; β-D-gluco form.

Structures are written as SMILES.

Molecule `COc1ccc(Cc2sccc2OC2OC(CO)C(O)C(O)C2O)cc1` (centres unmarked) [Example 7, 2-Hydroxymethl-6-[2-(4-methoxy-benzyl)-thiophen-3-yloxy]-tetrahydro-pyran-3,4,5-triol] returned an IC25 of 1100 nM. `COc1ccc(Cc2sc(C(F)(F)F)cc2OC2OC(CO)C(O)C(O)C2O)cc1` (centres unmarked) [Example 54] came in with an IC25 of 1400 nM.

One may read the IC25 as the point of the concentration-response curve where the effect stands at 25%. Low values mean an effect from little substance, high ones a need for much substance.
